In PMC8287724, “Reducing Auditory Nerve Excitability by Acute Antagonism of Ca^2+-Permeable AMPA Receptors” (Frontiers in Synaptic Neuroscience, 2021):
“And” between values parts separate entries of the source, which are not always exact repeats. Equal values may be shown once.

Tests used:
[1] = test system: auditory nerve compound action potential (CAP); test: Auditory nerve CAP during intracochlear (apical) perfusion; type: in vivo, guinea pig
Method: (§1) This study utilized 21 NIH-strain, pigmented guinea pigs weighing from 400 to 650 g, in accordance with policies and protocols approved by the Institutional Animal Care and Use Committee at Washington University in St. Louis (20180133, 20190035). Animals were anesthetized with intraperitoneal (IP) injection of 100 mg/kg sodium thiobutabarbital (Inactin, Sigma, St. Louis, MO). Once anesthetized, the fur from the head and neck was shaved and a tracheal cannula was placed. The animal was maintained on 0.8–1.2% isoflurane in oxygen using a mechanical ventilator. The ventilator's tidal volume was adjusted to maintain a 5% end-tidal CO2 which was monitored with a CapnoTrue AMP (Bluepoint Medical, Zevenaar, The Netherlands). Body temperature was maintained at 38 degrees C with a DC-powered heating blanket-rectal thermometer (Model 50-7079; Harvard Apparatus). Heart rate and oxygen saturation were monitored with a pulse oximeter (Surgivet, Waukesha, WI). The auditory bulla was exposed ventrally for placement of recording electrodes. The jugular vein was cannulated to maintain hydration with 0.5 mL per hour of Lactated Ringer's solution. To prevent middle ear muscle contractions, vecuronium bromide (0.2 mg/kg) was administered immediately prior to data collection and every 1.5 h thereafter.
The head was stabilized in a head-holder with a solid ear bar on the left side and hollow ear bar on the right side, a bite bar, and a snout clamp. Sound calibration, stimulus generation, and recording methods have been detailed previously (Lichtenhan et al., [2016a], [2017]). Briefly, cochlear function measurements were made using MATLAB software (The MathWorks, Natick, MA) and the software utility Playrec. The stimulus was first generated in MATLAB, digitized at 96 kHz, presented to a 24-bit sound card (RME: Fireface802; Sweetwater, Fort Wayne, IN), and then routed to an acoustic probe system (ER-10X; Etymotic Research, Fort Wayne, IN). The ER-10X microphone was calibrated using a reference microphone (1/8” GRAS type 40P) and a custom-made coupling system was used for setting stimulus levels. Sound was presented through the hollow ear bar on the right side via the ER-10X microphone probe.
Cochlear output was recorded as a field potential between a Ag/AgCl ball electrode in the cochlear round window niche and a platinum needle electrode at the vertex of the cranium. Responses to 20 tone bursts (10 with reversed polarity) were averaged for each CAP measurement at a given frequency and level. The CAP audiogram was measured (1–22 kHz, 1/4 octave steps) at the beginning and end of the experiment to determine CAP threshold as a function of tone-burst frequency. Prior to and immediately after IEM-1460 perfusions via the apical cochlear fenestration (see below), CAPs were evoked by tone bursts at selected frequencies and levels. Measurements were repeated at 1- to 2-min intervals to monitor cochlear output and to ensure response stationarity for at least 25 min prior to drug delivery. Data with baseline changes >20% were excluded. The round window niche was monitored for accumulation of fluid.
At each probe frequency, CAP peak-to-peak amplitudes were measured from the first trough (N1) to the first peak (P1). Latencies were measured to the trough of N1. Cochlear output was compared before and after intraperitoneal drug delivery. The data were tested for normality using a Kolmogorov-Smirnov test. For CAP amplitude and latency, significance was assessed with the Mann-Whitney U-test. The Wilcoxon signed rank test was used to assess CAP threshold. Friedman test was used to compare concentrations of drug between perilymph and CSF. A p < 0.05 was considered statistically significant. A Bonferroni correction was used when performing multiple comparison testing. All statistical tests were performed with IBM SPSS Statistics Version 27 (SPSS Inc., Chicago, IL, United States). […]

[2] = test system: distortion product otoacoustic emissions (DPOAE); test: Distortion product otoacoustic emissions after systemic delivery; type: in vivo, guinea pig; conditions: IP 13.5 mg/kg
Method: As described for local delivery, cochlear output was measured similarly for systemic delivery of IEM-1460 and IEM-1925. Complete details have been previously published (Salt et al., [2013]). Briefly, acoustic tone bursts were applied in a closed sound system. The plastic extension tube of the acoustic assembly (Etymotic Research, ER-10 C) was coupled to the end of the hollow ear bar with the tube tip positioned ~1.5 mm from the tympanic membrane. Stimulus generation and data collection were performed with Tucker Davis System 3 hardware controlled by a custom written program (Microsoft Visual Basic). Stimulus waveforms were routed through a programmable Tucker Davis PA5 attenuator and HB7 headphone amplifier. Stimuli were calibrated from 0.125 to 26 kHz in 1/4 octave steps. A CAP audiogram was obtained at the beginning and end of the experiment. Up to 60 min of baseline audiometric data were obtained prior to drug delivery. Data with baseline changes >20% were excluded. A 13-level tone probe series, at selected frequencies, was repeated at 2-min intervals. Distortion product otoacoustic emissions (DPOAEs) were measured using an ER10C probe system. The two primary tone frequencies were set at 6 kHz (f1) and 7.4 kHz (f2), for a f2/f1-ratio of 1.23, with levels of 65 dB SPL (L1) and 55 dB SPL (L2). […]

GluA2-containing AMPARs = test system: GluA2-containing AMPARs; design: method as in Magazanik et al., 1997; Buldakova et al., 1999; conditions: ref Magazanik et al., 1997; Buldakova et al., 1999; cited from earlier work
[3] = Heart rate and blood oxygenation monitoring during systemic dosing; type: in vivo, guinea pig; conditions: IP injection: IEM-1460 13.5 mg/kg, IEM-1925 8 mg/kg; N = 4
Method: as §1, with “To prevent middle ear muscle contractions, vecuronium bromide (0.2 mg/kg) was administered immediately prior to data collection and every 1.5 h thereafter.” left out
Systemic delivery of IEM-1925 (8 mg/kg, IP) reduced CAP amplitude to a similar extent as IEM-1460 (13.5 mg/kg, IP). […] Blood oxygenation and heart rate were monitored along with cochlear physiology during the time course of the experiment. […]

[4] = 100 μM, across tone levels and frequencies

Compound	reduction of tone-evoked CAP amplitude ([1]; 10 μM in perfusion)	reduction of CAP amplitude ([1]; 100 μM in perfusion pipette, 80 dB SPL tones at 2 and 16 kHz, average)	reduction of CAP amplitude relative to pre-drug baseline ([1]; 100 μM, 2 kHz tones)	reduction of CAP amplitude relative to pre-drug baseline ([1]; 100 μM, 16 kHz tones)	additional CAP delay [1, 4]	increase of CAP latency relative to pre-drug [1, 4]	change in CAP threshold ([1]; 100 μM, frequencies from 1 to 20 kHz) [dB SPL]	IC50 ([1]; Cavia porcellus, intracochlear perfusion 0.1 to 4,000 μM, 80 dB SPL probe, averaged for 2 and 16 kHz tones, Boltzmann fit, read-out: IC50, concentration for a 50% CAP reduction) [µM]	reduction of CAP amplitude ([1]; acute intracochlear delivery, all tone levels and frequencies (abstract, concentration not stated)) [%]	effect on distortion product otoacoustic emissions (DPOAEs) [2]	IC50 (GluA2-containing AMPARs) [µM]	temporary reduction in heart rate [3]
C[N+](C)(C)CCCCCNCC12CC3CC(CC(C3)C1)C2 [IEM-1460]	~ 25%	~ 55%	~ 60%	~ 30%	~ 0.3 ms	~ 10% and 10%	< 5	~73	> 50	unaffected	500 to 1100	
NCCCCCNC1(c2ccccc2)CCCCC1 [IEM-1925]												No such reduction
